EPA's CvTdb concentration-time database (doi:10.5012/bkcs.2003.24.5.559)

Test system: rat
Assay: concentration in urine after dosing
Conditions: dosed: benzo(a)pyrene, 20 mg/kg, iv, male, Sprague-Dawley

c1ccc2c(c1)cc1ccc3cccc4ccc2c1c34 [benzo(a)pyrene]
Conditions	concentration in urine [ng/mL]
4.13 h	3.27
7.866 h	0.98
11.07 h	0.98
23.06 h	10.1
29.09 h	126
35.2 h	1.96
47.07 h	0.98
52.8 h	0.654
58.8 h	0.654
76.8 h	0.654
94.93 h	0.654

Oc1ccc2ccc3c4ccccc4cc4ccc1c2c43 [3-hydroxybenzo(a)pyrene]
Conditions	concentration in urine [ng/mL]
4.071 h	0.145
8.015 h	0.0241
23.16 h	5.11
28.88 h	6.99
35.11 h	8.63
47.07 h	6.84
52.93 h	6.1
59.03 h	2.19
76.84 h	0.0482
95.04 h	0.289

Oc1ccc2ccc3cc4ccccc4c4ccc1c2c34 [1-hydroxybenzo(a)pyrene]
Conditions	concentration in urine [ng/mL]
3.699 h	0.371
7.645 h	0.0295
10.85 h	0.0167
22.69 h	1.58
28.98 h	3.02
34.9 h	5.24
46.73 h	2.31
52.9 h	2.18
58.94 h	1.1
77.07 h	0.514
94.7 h	0.0397
